# Measurements taken from US20250177425A1, “SAIKOSAPONIN C AS COMPOSITION FOR TREATING OR PREVENTING AGE-RELATED VASCULAR DISEASES INCLUDING ARTERIOSCLEROSIS” (AGINGTARGET, INC., priority 2022, published 2025).
# How the values were obtained:
# Type in all cases: cell-based, human
# [1] = system: HUVEC; assay: Fluorescence image analysis of high glucose-induced ROS generation; details: 5 μM and 20 μM pretreatment 2 hours, 33 mM high glucose 24 hours, dose-dependent
# Method: (§1) Similar to Experimental Example 1, a high-fat diet evaluation system at the cellular level was established.
# (§2) Specifically, two types of vascular endothelial cells, namely, HUVEC and HPAEC cells, were pretreated with Saikosaponin C at concentrations of 5 μM and 20 μM for 2 hours, and then treated with high glucose at a concentration of 33 mM for 24 hours. Then, hydrogen peroxide (H2O2) and superoxide anion (O2^⋅−) generated in the cytoplasm and mitochondria were measured using each fluorescent probe. In addition, samples treated with 100 μM hydrogen peroxide (a ROS-inducing agent) for 1 hour and then treated for an additional 23 hours after medium change were used as positive control groups.
# (§3) Different analytical reagents were used depending on the type of ROS and the intracellular location where they were generated. Specifically, cytosolic hydrogen peroxide, cytosolic superoxide anion, mitochondrial hydrogen peroxide, and mitochondrial superoxide anion were measured using H2DCFDA (2,7-dichlorodihydrofluorescein diacetate), DHE (dihydroethidium), DHR (dihydrorhodamine 123), and Mito-SOX reagents, respectively. The H2DCFDA (1 μM, 45 min staining), DHE (10 µM, 60 min staining), DHR (20 µM, 30 min staining), and Mito-SOX (5 μM, 10 min staining) were used as ROS-specific fluorescent probes for fluorescence image analysis.
# [2] = system: HPAEC; assay: as above; details: 5 μM and 20 μM pretreatment 2 hours, 33 mM high glucose 24 hours, dose-dependent
# Method: as §1, §2, §3
# [3] = system: HUVEC; assay: MTT assay, high glucose-induced growth inhibition; details: 5 μM and 20 μM pretreatment 2 hours, 33 mM high glucose 72 hours, dose-dependent
# Method: (§4) A high-fat diet test system at the cellular level was established using 33 mM high glucose (HG), which is 6 times the standard glucose concentration of 5.5 mM in the vascular endothelial cell culture medium.
# (§5) Specifically, two types of endothelial cells, namely, human umbilical vein endothelial cells (HUVECs) and human pulmonary artery endothelial cells (HPAECs), were pretreated with 5 μM and 20 μM of Saikosaponin C (SSc) for 2 hours, and then treated with 33 mM of high glucose for 72 hours. Then, cell growth was analyzed using the MTT assay, which measures the mitochondrial metabolic capacity of living cells.
# (§6) Endothelial cell growth was assessed by measuring the absorbance of MTT formazan at a wavelength of 590 nm.
# [4] = system: HPAEC; assay: MTT assay, high glucose-induced growth inhibition; details: 5 μM and 20 μM pretreatment 2 hours, 33 mM high glucose 72 hours, dose-dependent
# Method: as §4, §5, §6
compound,measurement,setting,value
CC1O[C@@H](O[C@@H]2C(CO[C@@H]3OC(CO)[C@@H](O)C(O)C3O)O[C@@H](O[C@H]3CC[C@]4(C)[C@H]5C=C[C@]67OC[C@@]8(CCC(C)(C)C[C@H]86)[C@@H](O)C[C@@]7(C)[C@]5(C)CC[C@H]4C3(C)C)C(O)C2O)C(O)C(O)[C@H]1O (stereo partly shown) [Saikosaponin C],high glucose-induced ROS generation (cytosolic and mitochondrial hydrogen peroxide and superoxide anion),[1],significantly suppressed
same,high glucose-induced ROS generation (cytosolic and mitochondrial hydrogen peroxide and superoxide anion),[2],significantly suppressed
same,high glucose-induced cell growth inhibition (MTT),[3],significantly alleviated
same,high glucose-induced cell growth inhibition (MTT),[4],significantly alleviated
